The target in data set [1] is T1, Cannabinoid receptor 2 (Homo sapiens, UniProt P34972). The data set is described as follows: Displacement of [3H]CP-55940 form human CB2 receptor expressed in CHO cells. It is filed as cell-based. In general terms: Displacement assays read how much labelled ligand stays bound in the presence of the test substance.
The target in data set [2] is T1, Cannabinoid receptor 2. The experiment in a line: Agonist activity at human CB2 receptor expressed in CHO cells by [35S]GTP-gamma-S binding assay. The data set is classed as functional, cell-based.
Data set [3] addresses T1, Cannabinoid receptor 2. The experiment in a line: Efficacy at human CB2 receptor expressed in CHO cells by [35S]GTP-gamma-S binding assay relative to CP-55940. It is filed as functional, cell-based. For orientation: Binding of GTPγS marks nucleotide exchange on a G protein.
In data set [4] the target is Cannabinoid receptor 1 (Homo sapiens, UniProt P21554). The experiment in a line: Displacement of [3H]CP-55940 form human CB1 receptor expressed in CHO cells. The data set is classed as cell-based.
Chain of Cannabinoid receptor 1 (P21554 whole entry): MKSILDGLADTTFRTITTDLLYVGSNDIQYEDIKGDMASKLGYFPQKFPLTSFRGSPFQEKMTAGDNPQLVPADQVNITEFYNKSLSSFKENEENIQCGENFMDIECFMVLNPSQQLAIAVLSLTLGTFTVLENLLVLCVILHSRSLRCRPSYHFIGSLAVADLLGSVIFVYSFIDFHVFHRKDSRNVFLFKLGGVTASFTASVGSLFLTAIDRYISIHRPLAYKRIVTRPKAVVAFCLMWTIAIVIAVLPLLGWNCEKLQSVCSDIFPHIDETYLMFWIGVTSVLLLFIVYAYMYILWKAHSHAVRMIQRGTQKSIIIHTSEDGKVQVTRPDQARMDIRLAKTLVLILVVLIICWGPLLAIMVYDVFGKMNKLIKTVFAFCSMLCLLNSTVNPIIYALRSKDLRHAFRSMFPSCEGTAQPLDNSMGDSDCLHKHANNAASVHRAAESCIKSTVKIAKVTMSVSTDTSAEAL
The nature of data set [5]: Metabolic stability in human liver microsomes assessed as parent compound remaining after 15 mins. The following applies: read-out: Stability. It is filed as ADME, Microsome.
The species named for data set [6] is Homo sapiens. The experiment in a line: Selectivity for human CB2 receptor over CB1 receptor.
Data set [7] in a line: Tmax in rat at 30 mg/kg, po. Conditions: in vivo. It is filed as ADME, organism-based. More on the design: dose 30 mg/kg, route oral.
The nature of data set [8]: Tmax in rat at 3 mg/kg, po. Conditions: in vivo. The data set is classed as ADME, organism-based. More on the design: dose 3 mg/kg, route oral.
Data set [9] can be described thus: Cmax in rat at 3 mg/kg, po. The data set is classed as ADME, organism-based. Conditions: in vivo. Set-up: dose 3 mg/kg, route oral.
Data set [10] is described as follows: Cmax in rat at 30 mg/kg, po. It is filed as ADME, organism-based. Set-up: dose 30 mg/kg, route oral. The following applies: in vivo.
The nature of data set [11]: Half life in rat at 10 mg/kg, po. The data set is classed as ADME, organism-based. More on the design: dose 10 mg/kg, route oral. The following applies: in vivo.
Data set [12] is described as follows: Oral bioavailability in rat at 3 mg/kg, po. It is filed as ADME, organism-based. Conditions: in vivo.
Data set [13] is described as follows: Cmax in rat at 10 mg/kg, po. The data set is classed as ADME, organism-based. More on the design: dose 10 mg/kg, route oral. The following applies: in vivo.
The nature of data set [14]: AUC (0 to 24 hrs) in rat at 3 mg/kg, po. Set-up: time < 24 hr, dose 3 mg/kg, route oral. The data set is classed as ADME, organism-based. The following applies: plasma.
Data set [15] can be described thus: AUC (0 to 24 hrs) in rat at 10 mg/kg, po. The data set is classed as ADME, organism-based. Conditions: plasma. Set-up: time < 24 hr, dose 10 mg/kg, route oral.
Data set [16] can be described thus: AUC (0 to 24 hrs) in rat at 30 mg/kg, po. Conditions: plasma. It is filed as ADME, organism-based. More on the design: time < 24 hr, dose 30 mg/kg, route oral.
Data set [17] can be described thus: Half life in rat at 30 mg/kg, po. Set-up: dose 30 mg/kg, route oral. Conditions: in vivo. The data set is classed as ADME, organism-based.
Data set [18] is described as follows: Tmax in rat at 10 mg/kg, po. The data set is classed as ADME, organism-based. More on the design: dose 10 mg/kg, route oral. Conditions: in vivo.
A short description of data set [19]: Half life in rat at 3 mg/kg, po. The data set is classed as ADME, organism-based. Set-up: dose 3 mg/kg, route oral. The following applies: in vivo.
In data set [20] the target is T1, Cannabinoid receptor 2. The experiment in a line: Displacement of [3H]CP-55940 form human CB2 receptor expressed in CHO cells at 100 nM. The data set is classed as cell-based.

A value given as a limit tells only on which side of the number the result lay.

A word on the IC50: it is the concentration needed to halve the response being measured. By EC50 is commonly meant the concentration that produces a half-maximal response. The low end stands for a more potent agent, the high end for a less potent agent. The Emax is the size of the effect at its maximum, as opposed to the concentration needed. Usually Tmax stands for the time at which the peak concentration occurs. Broadly, the Cmax is the highest concentration seen after dosing. The term half-life denotes the time needed for the level to fall by half in the phase considered. Low values mean fast loss, high ones slow loss. The bioavailability is dose-corrected exposure relative to a reference, in per cent. A low value points to poor availability. Broadly, the AUC(0-t) is exposure summed from dosing to a finite time, without extrapolation to infinity. Read a high AUC(0-t) as more exposure. As usually defined, the inhibition is how much of the control response was suppressed.

T1 sequence (P34972 whole entry): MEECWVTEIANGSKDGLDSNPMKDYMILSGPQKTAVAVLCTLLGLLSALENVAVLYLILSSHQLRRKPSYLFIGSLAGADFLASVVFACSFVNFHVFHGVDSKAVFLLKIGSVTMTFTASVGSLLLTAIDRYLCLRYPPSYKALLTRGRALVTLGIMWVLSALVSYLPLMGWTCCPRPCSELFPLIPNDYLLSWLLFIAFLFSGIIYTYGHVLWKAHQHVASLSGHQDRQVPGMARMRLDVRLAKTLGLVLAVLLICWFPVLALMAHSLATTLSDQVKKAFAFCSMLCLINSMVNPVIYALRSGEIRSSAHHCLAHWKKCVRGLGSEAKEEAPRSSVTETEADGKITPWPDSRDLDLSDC

Consider `Cc1c(C(C)(C)C)s/c(=N\C(=O)c2ccccc2)n1CC1CC1`, for which the IC50 in data set [1] came out at 260 nM. The same molecule yielded an EC50 in data set [2] of 86 nM. This molecule returned an Emax in data set [3] of 100%.

In turn, `Cc1c(C(C)(C)C)s/c(=N\C(=O)c2ccccc2C(F)(F)F)n1CC1CC1` displayed an IC50 in [4] of 140 nM.

As to `Cc1c(C(C)(C)C)s/c(=N\C(=O)c2cccc(Br)c2)n1CC1CC1`, the IC50 in data set [4] worked out at 53 nM; in data set [1] it was 1.2 nM. The molecule also had an EC50 in data set [2] of 0.3 nM. Also, the Emax in [3] came out at 96%.

In the case of `Cc1c(C(C)(C)C)s/c(=N\C(=O)c2cccc(N(C)C)c2)n1CC1CC1`, the IC50 in [1] is 17 nM. Besides, the remaining at 0.25 h in data set [5] came out at 44%.

On to `Cc1ccc(C(F)(F)F)cc1C(=O)/N=c1\sc(C(C)(C)C)c(C)n1CC1CC1`, for which the IC50 in data set [4] stood at 1200 nM; in data set [1] it was 2.1 nM. Further, the midpoint of the response in data set [2], the EC50, lay at 2.7 nM. Moreover, in data set [3], the Emax stood at 99%. Besides, the Ratio IC50 in [6] was determined as 570.

For the molecule `Cc1c(C(=O)N(C)C)s/c(=N\C(=O)c2cccc(C(F)(F)F)c2)n1CC1CC1`, the IC50 in data set [1] worked out at 1000 nM.

On to `Cc1c(C(C)(C)C)s/c(=N\C(=O)c2cccc(C(F)(F)F)c2)n1CC1CC1`, for which the figures for the Tmax in data set [7], in [8] and in data set [18] were 2.67 h, 1.67 h and 2 h, respectively. Moreover, the results for the IC50 in [4] and in data set [1] were 3500 nM and 13 nM, respectively. Moreover, the Cmax in data set [9] came out at 43.1 ng/mL; in [10] it was 498 ng/mL; in [13], 223 ng/mL. Besides, in data set [2], the response was half-maximal at 10 nM (EC50). In addition, the values for the half-life in data set [11], in [17] and in data set [19] were 4.96 h, 4.7 h and 4.8 h, respectively. The molecule also showed a bioavailability in data set [12] of 52%. For the same molecule, the exposure AUC(0-t) at 24 h is 326 ng·h/mL in [14], 2050 ng·h/mL in data set [15] and 4240 ng·h/mL in [16]. Besides, in data set [6], the Ratio IC50 was found to be 270.

Molecule `CCCn1c(C)c(C(C)(C)C)s/c1=N\C(=O)c1cccc(C(F)(F)F)c1` registered an IC50 in data set [1] of 46 nM.

As for `Cc1c(C(C)C)s/c(=N\C(=O)c2cccc(C(F)(F)F)c2)n1CC1CC1`, the IC50 in [1] was 29 nM.

For `Cc1c(C(C)(C)C)s/c(=N\C(=O)c2cccc(C(F)(F)F)c2)n1C`, the IC50 in [1] came to 220 nM.

Molecule `COc1cccc(C(=O)/N=c2\sc(C(C)(C)C)c(C)n2CC2CC2)c1` gave an IC50 in [1] of 24 nM.

On to `CCOC(=O)c1s/c(=N\C(=O)c2cccc(C(F)(F)F)c2)n(CC2CC2)c1C`, for which the IC50 in data set [1] was 110 nM.

Regarding `Cc1c(C(C)(C)C)s/c(=N\C(=O)c2cc(C(F)(F)F)ccc2N(C)C)n1CC1CC1`, the IC50 is over 10000 nM in data set [4] and 9.4 nM in [1]. Further, it took 7.3 nM to reach a half-maximal effect in data set [2] (EC50). Besides, the Emax in data set [3] was 89%. In addition, in [6], the Ratio IC50 was over 1000.

As for `Cc1c(C(C)(C)C)s/c(=N\C(=O)c2cc(C(F)(F)F)ccc2F)n1CC1CC1`, the IC50 in data set [4] is 1500 nM. The same molecule showed an EC50 in data set [2] of 1.5 nM. The same molecule returned an Emax in data set [3] of 85%. Also, the Ratio IC50 in data set [6] stood at 440.

As to `Cc1c(C(C)(C)C)s/c(=N\C(=O)c2ccc(Cl)c(C(F)(F)F)c2)n1CC1CC1`, the 50% inhibitory concentration (IC50) in data set [1] stood at 230 nM.

In [20], `Cc1c(C(C)(C)C)s/c(=N\C(=O)c2ccc(C(F)(F)F)cc2)n1CC1CC1` returned an inhibition of 24%.

For `Cc1c(C(C)(C)C)s/c(=N\C(=O)c2cccc(OC(F)(F)F)c2)n1CC1CC1`, the IC50 in data set [4] came to 1100 nM; in data set [1], 5.7 nM. The EC50 in [2] came to 7.6 nM. For the same molecule, the Emax in [3] turned out to be 72%.

The molecule `Cc1cccc(C(=O)/N=c2\sc(C(C)(C)C)c(C)n2CC2CC2)c1` came in with an IC50 in [1] of 22 nM.

As to `Cc1c(C(C)(C)C)s/c(=N\C(=O)c2cccc(C(F)(F)F)c2Cl)n1CC1CC1`, the IC50 in data set [1] was determined as 0.41 nM.

In turn, `Cc1s/c(=N\C(=O)c2cccc(C(F)(F)F)c2)n(CC2CC2)c1C` yielded a concentration for half-maximal inhibition (IC50) in [1] of 25 nM.

With `COCCn1c(C)c(C(C)(C)C)s/c1=N\C(=O)c1cccc(C(F)(F)F)c1`, the results for the IC50 in data set [4] and in data set [1] were 4100 nM and 10 nM, respectively. For the same molecule, in data set [2], the EC50 stood at 5.6 nM. The maximum response (Emax) in [3] was found to be 59%.

`Cc1c(C(C)(C)C)s/c(=N\C(=O)c2cc(C(F)(F)F)cc(C(F)(F)F)c2)n1CC1CC1` yielded an inhibition in data set [20] of 10%.

As for `CCOCCn1c(C)c(C(C)(C)C)s/c1=N\C(=O)c1cccc(C(F)(F)F)c1`, the IC50 in data set [4] worked out at 690 nM. The molecule further came in with an EC50 in data set [2] of 2 nM. In data set [3], this molecule had an Emax of 45%.

In turn, `CCn1c(C)c(C(C)(C)C)s/c1=N\C(=O)c1cccc(C(F)(F)F)c1` registered an IC50 in [1] of 74 nM.

In the case of `Cc1c(C(C)(C)C)s/c(=N\C(=O)c2cc(C(F)(F)F)ccc2Cl)n1CC1CC1`, the IC50 in data set [4] is 830 nM; in [1], 2.1 nM. This molecule also had an EC50 in data set [2] of 4 nM. This molecule also gave an Emax in data set [3] of 95%.

Take `COc1ccc(C(F)(F)F)cc1C(=O)/N=c1\sc(C(C)(C)C)c(C)n1CC1CC1`: the IC50 in [4] is 1900 nM; in data set [1] it was 1.2 nM. Moreover, in [2], the EC50 was 0.62 nM. Also, in [11], the half-life is 4.07 h. In addition, the Cmax in data set [13] was found to be 148 ng/mL. In addition, the AUC(0-t) at 24 h in data set [15] was found to be 1120 ng·h/mL. Besides, the Emax in data set [3] was 100%. The remaining at 0.25 h in data set [5] came to 85%. In addition, in data set [18], the Tmax stood at 1 h. Moreover, the Ratio IC50 in data set [6] is 1600.

Take `Cc1c(C(C)(C)C)s/c(=N\C(=O)c2cccc(Cl)c2)n1CC1CC1`: the IC50 in data set [1] stood at 20 nM.

In data set [20], `Cc1c(C(C)(C)C)s/c(=N\C(=O)c2cccc(F)c2)n1CC1CC1` had an inhibition of 44%.

(Values after ChEMBL document CHEMBL1140512, “N-Alkylidenearylcarboxamides as new potent and selective CB(2) cannabinoid receptor agonists with good oral bioavailability” (Bioorg Med Chem Lett, 2007).)
